Consider three compounds from patent publication US4599346A, “Propan-2-ol derivatives, a process for their production and medicaments containing these compounds” (Ludwig Heumann & Co., GmbH, priority 1983, dated 1986).

Each structure is given as a SMILES string.

For data set [1], the target named is T1, histamine-H2 -receptors (Cavia porcellus, UniProt P47747).
T1 construct: in vitro on the isolated atrium of guinea pigs; from tissue; host or cells: isolated atrium of guinea pigs
Description: H2-antagonistic activity: pA2 values in vitro on the isolated atrium of guinea pigs. The source says: J. Pharmacol. Chemother.", 27, 427 (1966) and Black et al., "Nature", 236, 385 (1971)].
A recognized method of measuring H2 -antagonistic activity is based on determination of the pA2 -values in vitro on the isolated atrium of guinea pigs

For data set [2] the following is noted: background statement; result in words; cited from earlier work.

T1 sequence (P47747 whole entry): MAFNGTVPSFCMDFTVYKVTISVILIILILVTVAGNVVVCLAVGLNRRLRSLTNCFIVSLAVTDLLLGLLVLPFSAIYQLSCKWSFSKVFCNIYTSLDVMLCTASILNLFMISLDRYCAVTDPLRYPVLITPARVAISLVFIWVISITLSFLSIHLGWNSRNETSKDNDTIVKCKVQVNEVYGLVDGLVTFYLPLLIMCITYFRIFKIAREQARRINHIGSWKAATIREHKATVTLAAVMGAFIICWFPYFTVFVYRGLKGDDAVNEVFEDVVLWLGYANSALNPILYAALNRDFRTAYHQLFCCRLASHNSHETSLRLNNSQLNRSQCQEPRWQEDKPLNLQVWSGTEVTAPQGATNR

`Nc1n[s+]([O-])nc1NCC(O)COc1cccc(CN2CCCCC2)c1` (stereo not drawn) [Example 1, 4-amino-3-[2-hydroxy-3-[3-(1-piperidinylmethyl)-phenoxy]propyl]-amino-1,2,5-thiadiazole-1-oxide] had an antagonist equilibrium constant (Kb) in data set [1] of 49 nM.

`Nc1c(NCC(O)COc2cccc(CN3CCCCC3)c2)c(=O)c1=O` (stereo not drawn) [Example 2, 2-amino-1-[2-hydroxy-3-[3-(1-piperidinylmethyl)-phenoxy]propyl]-aminocyclobut-1-ene-3,4-dione] showed a Kb in data set [1] of 72.4 nM.

Turning to `CN/C(=N/CCSCc1nc[nH]c1C)NC#N` [Cimetidine], the half life result in data set [2] was “relatively short half life”.
